This is an account of results in patent US6482805B2 (Parker Hughes Institute, priority 1998, dated 2002).

The assay deals with sperm acrosome. The experiment in a line: Sperm acrosome and membrane integrity by FITC-lectin staining, confocal, SEM and TEM (Example 4). The assay is classed as cell-based, human. The following applies: for sperm head topography by scanning electron microscopy: 100 μM WHI compounds or 10 μM Cal A23187, 3 hours; for acrosome status by confocal microscopy (FITC-lectin) / acrosome-intact sperm: 100 μM; for acrosome status by confocal microscopy (FITC-lectin) / sperm head membranes by transmission electron microscopy / acrosome-intact sperm: 3 hours; for acrosome-intact sperm: method counts percentages of sperm with intact acrosome. Here is the method: The percentages of sperm with an intact acrosome were evaluated by fluorescence microscopy (Olympus BX-60) following fixation and ethanol permeabilization of the sperm pellets and subsequent staining with fluorescein (FITC)-conjugated Pisum sativum lectin (Sigma). In positive control sperm, the acrosome reaction was induced by incubating (3 hours at 37° C.) the sperm suspension with 10 μm calcium ionophore (Cal) A23187 (Sigma). […] The percentage of sperm positive for PI were determined by flow cytometry using a FACS Vantage flow cytometer (Becton Dickinson and Co., Mountain View, Calif.). The sperm in the swim-up fractions were identified by their characteristic forward and 90° angle light scattering properties [O. J. D'Cruz and G. G. Haas, Jr. Fertil. Steril. 58, 633 (1992)]. All analyses were done using the 488-nm excitation from an krypton/argon laser with a 635-nm band pass filter for PI emission. The percentage of sperm positive for PI staining were determined using cutoff signals for membrane-intact motile sperm.
Ethanol permeabilized and air-dried sperm smears were stained sequentially with the three fluorescent markers, FITC-Pisum sativum, TOTO-3 iodide, and Nile red, each marking a different target (acrosome, nucleus, and plasma membrane of permeabilized sperm respectively). Samples were examined under a BioRad MRC-1024 Laser Scanning Confocal Microscope (BioRad Laboratories, Hercules, Calif.) equipped with a krypton/argon mixed gas laser (excitation lines 488, 568, and 647 nm) and mounted on a Nikon Eclipse E800 series upright microscope. The fluorescence emission of fluorescein, TOTO-3 iodide, and Nile red from the acrosomal region, nucleus, and the plasma membrane of sperm after ethanol permeabilization were simultaneously detected using the 598/40 nm, 522 DF32, and 680 DF32 emission/filter respectively. Confocal images were obtained using a Nikon 60× (NA 1.35) objective lens and Kalman collection filter. Digitized images were processed with the Adobe Photoshop software (Adobe Systems, Mountain View, Calif.). Final images were printed using a Fujix Pictography 3000 (Fuji Photo Film Co., Tokyo, Japan) color printer.
High-resolution low-voltage scanning electron microscopy was utilized for topographical imaging of different membrane domains over the sperm head as described [M. H. Stoffel et al. Molecular. Reprod. Develop. 34, 175 (1993); S. L. Erlandsen et al. Scanning 11, 169 (1989)]. […] Washed sperm suspensions were placed on 0.1% poly-L-lysine-coated glass chips and allowed to adhere to the glass over a 60 minute incubation period on ice. The supernatants were decanted, and adherent cells were fixed in 1% paraformaldehyde and 1% glutaraldehyde in 0.14 M sodium cacodylate buffer for 3 hours. To preserve plasma membrane integrity, sperm were post-fixed in 1% osmium tetroxide (OSO4) containing 0.1% ruthenium red in 0.14 M cacodylate buffer for 1 hour at 4° C. All samples were dehydrated through an ascending ethanol series, critical point dried, and coated with approximately 2 nm of platinum using ion beam sputtering with argon (4 mA at 10 ke V; Ion Tech Ltd., Middlesex, England). All samples were examined in a Hitachi S-900 SEM at an accelerating voltage of 2 keV. Sperm were observed under low magnification (×2,000-5000) and representative sperm were photographed under intermediate magnification (×18,000-25,000). In each specimen evaluated, at least 200 sperm were scanned for the intactness of sperm acrosomal region.
For transmission electron microscopy, treated sperm were fixed in 3% glutaraldehyde in 5% sucrose in 0.2 M cacodylate buffer for 3 hours at room temperature. The samples were post-fixed in 1% OSO4, 5% sucrose and 0.1% ruthenium red for 2 hours at 4° C. The samples were dehydrated in ascending ethanol series, and embedded in Spurr's epoxy. Thin sections (90 nm) were prepared on a Reichert-Jung Ultracut E and stained with uranyl acetate and lead citrate.

In the case of “5-bromo-6-methoxy-5,6-dihydro-3 ′-azidothymidine-5 ′-(p-methoxyphenyl) methoxyalaninyl phosphate [WHI-05]”, the “sperm head topography by scanning electron microscopy” value is “intact acrosomes”; the “acrosome status by confocal microscopy (FITC-lectin)” value (“acrosome status” for short) was “uniform, bright green fluorescence”; the “sperm head membranes by transmission electron microscopy” value is “intactness of the plasma membrane, outer, and inner acrosomal membranes”; the acrosome-intact sperm is 97.0±2.0.

Regarding `CCCCCCCCCc1ccc(OCCOCCOCCOCCOCCOCCOCCOCCOCCO)cc1` [Compound N-9, nonoxynol-9, reference compound], the “acrosome status” value is recorded as “only acrosome-reacted sperm”.

On to `COC(=O)C(C)NP(=O)(OCC1OC(N2C(=O)NC(=O)C(C)(Br)C2OC)CC1N=[N+]=[N-])Oc1ccc(Br)cc1` (stereo not drawn) [WHI-07, 5-Bromo-6-methoxy-5,6-dihydro-3′-azidothymidine-5′-(p-Bromophenyl Methoxyalaninyl Phosphate)], for which the “sperm head topography by scanning electron microscopy” value is listed as “mild acrosomal membrane ruffling”; the “acrosome status” value is “uniform, bright green fluorescence”; the “sperm head membranes by transmission electron microscopy” value is “intactness of the plasma membrane, outer, and inner acrosomal membranes”; the acrosome-intact sperm was 93.0±5.6.
